Results taken from patent US20060263802A1 (priority 2003, published 2006).

How the values were obtained:
Assay type in all cases: binding
[1] = system: human monoclonal antibody CRJB
[2] = system: human monoclonal antibody CRJA
[3] = system: human monoclonal antibody CRJA; remark: listed apart in the source
[4] = system: human monoclonal antibody CR57
[5] = system: human monoclonal antibody CR57; remark: listed apart in the source
[6] = system: human monoclonal antibody CRJB; remark: listed apart in the source

| Sequence | Binding of CRJB to linear peptide (PEPSCAN-ELISA signal) [1] | Binding of CRJA (10 μg/ml) to looped/cyclic peptide (PEPSCAN-ELISA) [2] | Binding of CRJA to linear peptide (PEPSCAN-ELISA signal) [3] | Binding of CR57 (10 μg/ml) to looped/cyclic peptide (PEPSCAN-ELISA) [4] | Binding of CR57 to linear peptide (PEPSCAN-ELISA signal) [5] | Binding of CRJB (10 μg/ml) to looped/cyclic peptide (PEPSCAN-ELISA) [6] | Binding of CRJA (10 μg/ml) to looped/cyclic peptide (PEPSCAN-ELISA signal) [2] | Binding of CR57 (10 μg/ml) to looped/cyclic peptide (PEPSCAN-ELISA signal) [4] | Binding of CRJB (10 μg/ml) to looped/cyclic peptide (PEPSCAN-ELISA signal) [6] | binding of antibody CR57 to linear peptide (PEPSCAN OD) [5] | strength of binding of CR57 (OD value compared with the other peptides / twice the average value) [5] |
| --- | --- | --- | --- | --- | --- | --- | --- | --- | --- | --- | --- |
| QLVNLHDFRSDEIEH | 113 | 66 | 89 | 47 | 60 | 44 | – | – | – | – | – |
| CPPDQLVNLHDFRSD | 137 | 92 | 115 | 137 | 93 | 123 | – | – | – | – | – |
| SLHNPYPDYRWLRTV | 111 | – | 87 | – | 78 | – | 99 | 104 | 90 | – | – |
| LVHPLADPSTVFKDG | 174 | 108 | 106 | 133 | 164 | 116 | – | – | – | – | – |
| PLVHPLADPSTVFKD | 112 | 104 | 90 | 101 | 93 | 90 | – | – | – | – | – |
| SIMTTKSVSFRRLSH | 130 | 72 | 92 | 69 | 54 | 25 | – | – | – | – | – |
| KSVRTWNEILPSKGC | 125 | 110 | 90 | 148 | 115 | 104 | – | – | – | – | – |
| GFTCTGVVTEAENYT | 86 | – | 90 | – | 71 | – | 87 | 94 | 68 | – | – |
| SSLLQQHMELLESSV | 128 | 90 | 106 | 98 | 90 | 76 | – | – | – | – | – |
| EELVRKREECLDALE | 112 | 104 | 118 | 79 | 69 | 2 | – | – | – | – | – |
| RLGMSCDIFTNSRGK | 106 | – | 92 | – | 88 | – | 110 | 105 | 104 | – | – |
| LGMSCDIFTNSRGKR | 110 | – | 100 | – | 76 | – | 104 | 102 | 105 | – | – |
| SGFSYMELKVGYILA | 132 | – | 105 | – | 79 | – | 69 | 74 | 83 | – | – |
| IHHLSCPNNLVVEDE | 85 | – | 79 | – | 37 | – | 76 | 46 | 71 | – | – |
| LGPWSPIDIHHLSCP | 112 | – | 84 | – | 69 | – | 72 | 88 | 83 | – | – |
| VIISPSVADLDPYDR | 98 | – | 47 | – | 59 | – | 100 | 90 | 82 | – | – |
| ILAIKMNGFTCTGVV | 103 | – | 87 | – | 79 | – | 45 | 77 | 72 | – | – |
| ACKLKLCGVLGLRLM | 117 | 71 | 79 | 111 | 148 | 92 | – | – | – | bound | lower than twice the average value |
| TGVVTEAENYTNFVG | 110 | – | 86 | – | 85 | – | 96 | 92 | 69 | – | – |
| LHNPYPDYRWLRTVK | 106 | – | 86 | – | 79 | – | 93 | 99 | 93 | – | – |
| LESIMTTKSVSFRRL | 114 | 91 | 94 | 94 | 48 | 78 | – | – | – | – | – |
| TNHDYTIWMPENPRL | 129 | – | 91 | – | 69 | – | 72 | 40 | 58 | – | – |
| SGVAVSSTYCSTNHD | 110 | – | 84 | – | 79 | – | 90 | 79 | 55 | – | – |
